The values below come from patent publication US6294580A, “Substituted 4-hydroxy-phenylalcanoic acid derivatives with agonist activity to PPAR-gamma” (Glaxo Wellcome Inc., priority 1996, dated 2001).

One data set deals with T1, hPPARgamma (Homo sapiens, UniProt P37231).
T1 construct: 10x-histidine tag (N); made in house; host or cells: E. coli
T1 sequence (P37231 195-475 isoform P37231-2): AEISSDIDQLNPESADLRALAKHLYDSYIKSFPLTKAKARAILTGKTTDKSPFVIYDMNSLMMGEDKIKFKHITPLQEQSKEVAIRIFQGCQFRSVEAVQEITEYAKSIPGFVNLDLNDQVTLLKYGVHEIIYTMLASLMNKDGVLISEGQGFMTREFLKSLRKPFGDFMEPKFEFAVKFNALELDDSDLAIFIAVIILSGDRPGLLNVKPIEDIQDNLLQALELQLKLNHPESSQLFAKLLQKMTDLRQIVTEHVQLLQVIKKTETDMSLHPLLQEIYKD
Kind of data set: hPPARgamma Ligand Binding Assay. To be noted: competition with [3H]-BRL 49,653, room temperature 2 hrs.

Another data set has as its system PPARg. Kind of data set: PPARgamma Transient Cotransfection Assay. The format is cell-based.
The mark [1] stands for this setting: CAT reporter, read-out: PPARg EC50.
Setting [2] is: read-out: PPARg EC50, CAT reporter.

Counter-ions that a name gives are not always drawn. Like-named read-outs stand apart in the source and are kept apart here.

Method for hPPARgamma: 2. hPPARgamma Ligand Binding Assay: The PPAR-gamma ligand binding domain (amino acids 195-475) was expressed with an N-terminal 10×-histidinetag in E. coli cells. The cells were lysed and receptor was purified by means of the epitope tag. The stock solution of protein was diluted to 200 nM in assay buffer (50 mM Tris, 50 mM KCl, pH 8 20 mM CHAPS, 2 mM EDTA 10 mM DTT (Fresh)) just before use.
Test compounds were prepared as 6 mM stock solutions in DMSO. […] The right-most column of wells was used for controls. […] Plates were incubated at room temperature for 2 hrs, and then cooled on ice for 30 minutes. 50 uL samples from each well of a single test plate were simultaneously loaded onto an equilibrated AGTC 96 well gel filtration block (Advanced Genetics Technology Corp.) using a Zymak Rapidplate automated pipettor. The block was placed on top of a clean microtiter plate and centrifuged @1,100×g for 4 min. 200 uL of scintillation fluid was added to each well, the plates were sealed and allowed to equilibrate for at least 4 hours before counting in a Wallac 1250 Microbeta counter.
Ki's were determined from a nonlinear least squares fit of the data to a simple competitive binding model.

With “2-(2-Benzoyl-phenylamino)-3-(4-{2-[3-(5-methyl-pyridin-2-yl)-propoxy]-ethoxyl}-phenyl)-propionic acid [Example 122]”, the Ki (in general, the dissociation constant of the complex between target and ligand, obtained from inhibition or displacement) on hPPARgamma (read-out: PPARg Ki) was 0.625 µM. In the data set on PPARg (setting [1]), the EC50 (as a rule, the concentration at which the effect is half-maximal) came out at 0.5 µM.
Taken in the same sequence, the figures for “3-{4-[2-(Benzoxazol-2-yl-methylamino)-ethoxy]-phenyl}-3-(4-benzoyl-thienylamino)-propionic acid [Example 108]” were 0.08 µM and 0.02 µM.
For `COC(=O)C(Cc1ccc(OCc2ccccc2)cc1)Nc1ccccc1C(=O)Nc1ccccc1` (racemic) [Example 6, 3-(4-Benzyloxy-phenyl)-2-(phenylcarbamoyl-phenylamino)-propionic acid methyl ester], the “PPARg Fold. Act.” value in the data set on PPARg (CAT reporter) is given as 4.
At hPPARgamma (PPARg Ki), `Cc1oc(-c2ccccc2)nc1CCOc1ccc(CC(Nc2ccccc2C(=O)C2CCCCC2)C(=O)O)cc1` (single isomer, unassigned) [Example 53, 2-(2-Cyclohexanecarbonyl-phenylamino)-3-{4-[2-(5-methyl-2-phenyl-oxazol-4-yl)-ethoxy]-phenyl}-propionic acid] returned a Ki of 0.07 µM. Also, the half-maximal effective concentration (EC50) in the data set on PPARg (setting [1]) was found to be 0.025 µM.
Taken in the same sequence, the figures for `Cc1oc(-c2ccccc2)nc1CCOc1ccc(CC(Nc2ccccc2C(=O)C2CCCCC2)C(=O)O)cc1` (single isomer, unassigned) [Example 54, 2-(2-Cyclohexanecarbonyl-phenylamino)-3-{4-[2-(5-methyl-2-phenyl-oxazol-4-yl)-ethoxy]-phenyl}-propionic acid] were 3 µM and 0.25 µM.
Consider `CC(=CC(=O)c1ccccc1)N[C@@H](Cc1ccc(OCc2ccccc2)cc1)C(=O)O` [Example 1, 3-(4-Benzyloxy-phenyl)-2(S)-(1-methyl-3-oxo-3-phenyl-propenylamino)-propionic acid dicyclohexylamine salt], for which the affinity on hPPARgamma (PPARg Ki), expressed as Ki, was 0.055 µM. Besides, the “PPARg Fold. Act.” value with PPARg (CAT reporter) is 26. In addition, the EC50 with PPARg (setting [1]) was determined as 0.06 µM.
In the same order, the values of `COC(=O)[C@H](Cc1ccc(OCc2ccccc2)cc1)NC(C)=CC(=O)c1ccccc1` [Example 2, 3-(4-Benzyloxy-phenyl)-2(S)-(1-methyl-3-oxo-3-phenyl-propenylamino)-propionic acid methyl ester] are 1 µM, 23 and 0.1 µM.
On to `O=C(C1=C(N[C@@H](Cc2ccc(OCc3ccccc3)cc2)C(=O)O)CCCC1)c1ccccc1` [Example 3, 2(S)-(2-Benzoyl-cyclohex-1-enylamino)-3-(4-benzyloxy-phenyl)-propionic acid dicyclohexylamine salt], for which the “PPARg Fold. Act.” value in the data set with PPARg (CAT reporter) was 3.
In turn, `O=C(c1ccccc1)c1ccccc1NC(Cc1ccc(OCc2ccccc2)cc1)C(=O)O` (stereo not shown) [Example 4, 2-(2-benzoylphenylamino)-3-(4-benzyloxyphenyl) propanoic acid] had a Ki at hPPARgamma (PPARg Ki) of 1 µM. For the same compound, in the data set with PPARg (CAT reporter), the “PPARg Fold. Act.” value amounted to 20. The EC50 in the data set with PPARg (setting [1]) came out at 3 µM.
Taken in the same sequence, the figures for `COC(=O)C(Cc1ccc(OCc2ccccc2)cc1)Nc1ccccc1C(=O)OCc1ccccc1` (stereo not shown) [Example 5] were greater than 3 µM, 10 and 9 µM.
On to `COC(=O)C(Cc1ccc(OCc2ccccc2)cc1)Nc1ccccc1C(=O)N1CCCCC1` (stereo not shown) [Example 7, 3-(4-Benzyloxy-phenyl)-2-[2-(piperidine-1-carbonyl)-phenylamino]-propionic acid methyl ester], for which the “PPARg Fold. Act.” value in the data set on PPARg (CAT reporter) came to 5.
On to `O=C(c1ccccc1)c1ccsc1NC(Cc1ccc(OCc2ccccc2)cc1)C(=O)O` (stereo not shown) [Example 8, 2-(3-Benzoyl-thiophen-2-yl-amino)-3-(4-benzyloxy-phenyl)-propionic acid], for which, on hPPARgamma (PPARg Ki), affinity was put at a Ki of 0.021 µM. Moreover, the half-maximal effective concentration (EC50) with PPARg (setting [1]) worked out at 0.72 µM.
Taken in the same sequence, the figures for `O=C(c1ccccc1)c1sccc1NC(Cc1ccc(OCc2ccccc2)cc1)C(=O)O` (stereo not shown) [Example 9, 2-(2-Benzoyl-thiophen-3-yl-amino)-3-(4-benzyloxy-phenyl)-propionic acid] were 0.7 µM and 0.63 µM.
In the same order, the values of `COC(=O)[C@H](Cc1ccc(OCc2ccccc2)cc1)NC(=O)c1coc2ccccc2c1=O` [Example 10, 3-(4-Benzyloxy-phenyl)-2(S)-[(4-oxo-4H-chromene-3-carbonyl)-amino]-propionic acid methyl ester] are 0.3 µM and 0.17 µM.
Regarding `CN(CCOc1ccc(CC(Nc2ccccc2C(=O)c2ccccc2)C(=O)O)cc1)c1ccccn1` (stereo not shown) [Example 11, 2-(2-Benzoyl-phenylamino)-3-{4-[2-(methyl-pyridin-2-yl-amino)-ethoxy]-phenyl}-propionic acid], in the data set with PPARg (setting [2]), the EC50 came out at 0.01 µM.
In the case of `CCOC(=O)C(Cc1ccc(OCCN(C)c2ccccn2)cc1)Nc1ccccc1C(=O)c1ccccc1` (stereo not shown) [Example 13, 2-(2-Benzoyl-phenylamino)-3-{4-[2-(methyl-pyridin-2-yl-amino)-ethoxy]-phenyl}-propionic acid ethyl ester], on hPPARgamma (PPARg Ki), the Ki was 1.3 µM. Besides, the half-maximal effective concentration (EC50) with PPARg (setting [1]) is 0.06 µM.
Consider `CC(=CC(=O)c1ccccc1)NC(Cc1ccc(OCCN(C)c2ccccn2)cc1)C(=O)O` (stereo not shown) [Example 14, 2-(1-Methyl-oxo-3-phenyl-propenylamino)-3{4-[2-(methyl-pyridin-2-yl-amino)-ethoxy]-phenyl}-propionic acid dicyclohexylamine salt], for which, on hPPARgamma (PPARg Ki), the Ki turned out to be 0.08 µM. The “PPARg Fold. Act.” value with PPARg (CAT reporter) is 18. Also, the EC50 with PPARg (setting [1]) stood at 0.001 µM.
Compound `CN(CCOc1ccc(CC(Nc2ccccc2C(=O)c2ccccc2)C(=O)O)cc1)c1nc2ccccc2o1` (stereo not shown) [Example 15, 3-{4-[2-(benzoxazol-2-yl-methyl-amino)-ethoxy]-phenyl}-2-(2-benzoyl-phenylamino)-propionic acid] yielded a Ki at hPPARgamma (PPARg Ki) of 0.04 µM. Further, in the data set on PPARg (setting [1]), the EC50 was determined as 0.001 µM.
Taken in the same sequence, the figures for `CC(=CC(=O)c1ccccc1)N[C@@H](Cc1ccc(OCCN(C)c2nc3ccccc3o2)cc1)C(=O)O` [Example 17, 3-{4-[2-(Benzoxazol-2yl-methyl-amino)-ethoxy]-phenyl}-2(S)-(1-methyl-3-oxo-3-phenyl-propenylamino)-propionic acid dicyclohexylamine salt] were 0.08 µM and 0.001 µM.
For `CC(=CC(=O)c1cccc(I)c1)N[C@@H](Cc1ccc(OCCN(C)c2nc3ccccc3o2)cc1)C(=O)O` [Example 18, 3-{4-[2-(Benzoxazol-2-yl-methyl-amino)-ethoxy]-phenyl}-2(S)-[3-(3-iodo-phenyl)-1-methyl-3-oxo-propenylamino]-propionic acid dicyclohexylamine salt], the inhibitory constant (Ki) on hPPARgamma (PPARg Ki) amounted to 0.01 µM. The concentration giving a half-maximal response (EC50) with PPARg (setting [1]) came out at 0.005 µM.
With `Cc1ccc(NC(Cc2ccc(OCCN(C)c3nc4ccccc4o3)cc2)C(=O)O)c(C(=O)c2ccccc2)c1` (stereo not shown) [Example 19, 3-{4-[2-(benzoxazol-2-yl-methyl-amino)-ethoxy]-phenyl}-2-(2-benzoyl-4-methyl-phenylamino)-propionic acid], at hPPARgamma (PPARg Ki), the affinity, expressed as Ki, was 0.185 µM. For the same compound, the EC50 in the data set with PPARg (setting [1]) came out at 0.065 µM.
Consider `CN(CCOc1ccc(C[C@H](NC(=O)c2coc3ccccc3c2=O)C(=O)O)cc1)c1nc2ccccc2o1` [Example 28, 3-{4-[2-(Benzoxazol-2-yl-methyl-amino)-ethoxy]-phenyl}-2(S)-[(4-oxo-4H-chromene-3-carbonyl)-amino]-propionic acid], for which the EC50 in the data set with PPARg (setting [1]) was determined as 0.025 µM.
With `COC(=O)[C@H](Cc1ccc(OCCc2nc(N3CCN(C)CC3)sc2C)cc1)Nc1ccccc1C(=O)c1ccccc1` [Example 42], the EC50 in the data set on PPARg (setting [1]) was found to be 0.005 µM.
Regarding `CCN(CCOc1ccc(C[C@H](Nc2ccccc2C(=O)OC)C(=O)O)cc1)c1cccc(C)c1` [Example 71], the half-maximal effective concentration (EC50) in the data set on PPARg (setting [1]) is 0.15 µM.
The same measure, in the same setting: to `Cc1oc(-c2ccccc2)nc1CCOc1ccc(CC(Nc2ccccc2C(=O)c2cccc(C(=O)O)c2)C(=O)O)cc1` (stereo not shown) [Example 84] belongs 0.055 µM; to `Cc1oc(-c2ccccc2)nc1CCOc1ccc(CC(Nc2ccccc2C(=O)c2cccc(CO)c2)C(=O)O)cc1` (stereo not shown) [Example 85, 2-[2-(3-hydroxymethyl-benzoyl)-phenylamino]-3-{4-[2-(5-methyl-2-phenyl-oxazol-4-yl)-ethoxy]-phenyl}-propionic acid], 0.02 µM.
Take `COC(=O)c1ccccc1N[C@@H](Cc1ccc(OCCc2nc(-c3ccccc3)oc2C)cc1)C(=O)O` [Example 88, 2-(S)-(1-carboxy-2-{4-{2-(5-methyl-2-phenyl-oxazol-4-yl)-ethoxy]-phenyl}-ethylamino)-benzoic acid methyl ester]: the EC50 in the data set with PPARg (setting [2]) worked out at 0.0005 µM.
On to `Cc1oc(-c2ccccc2)nc1CCOc1ccc(C[C@H](Nc2ccccc2C(=O)NCCCN)C(=O)O)cc1` [Example 90, 2-(S)-(1-carboxy-2-{4-{2-(5-methyl-2-phenyl-oxazol-4-yl)-ethoxy]-phenyl}-ethylamino)-benzoic acid 3-aminopropyl amide hydrochloride], for which the inhibitory constant (Ki) on hPPARgamma (PPARg Ki) is 3 µM.
`CNC(=O)c1ccccc1N[C@@H](Cc1ccc(OCCc2nc(-c3ccccc3)oc2C)cc1)C(=O)O` [Example 91, 2-(S)-(1-carboxy-2-{4-{2-(5-methyl-2-phenyl-oxazol-4-yl)ethoxy]-phenyl}-ethylamino)-benzoic acid methyl amide]: in the data set with PPARg (setting [1]), the EC50 was found to be 0.02 µM.
For the compound `Cc1sc(N2CCN(S(C)(=O)=O)CC2)nc1CCOc1ccc(C[C@H](Nc2ccccc2C(=O)c2ccccc2)C(=O)O)cc1` [Example 103, 2(S)-(2-benzoyl-phenylamino)-3-(4-{2-[5-methyl-2-(4-methylsulfonyl-piperazin-1-yl)-thiazol-4-yl]-ethoxy}-phenyl)-propionic acid], the EC50 with PPARg (setting [2]) turned out to be 0.18 µM.
